Assay results published in patent publication US20240423207A1, “PICOLINAMIDE COMPOUNDS WITH FUNGICIDAL ACTIVITY” (CORTEVA AGRISCIENCE LLC, priority 2014, published 2024).
Read-outs that look alike come from different tables or passages of the source.

What was measured:
Assay type in all cases: in vivo
[1] = tested on: Magnaporthe grisea; Anamorph: Pyricularia oryzae; assay: whole plant or invertebrate; details: 24 h, read-out: PYRIOR 1 DP disease control
Cercospora beticola = assay: Leaf Spot of Sugar Beets (CERCBE) fungicidal activity on sugar beet plants; details: 24 h, 1 Day Protectant, read-out: CERCBE 1 DP disease control
Procedure: Technical grades of materials were dissolved in acetone, which were then mixed with nine volumes of water (H2O) containing 110 ppm Triton X-100. The fungicide solutions were applied onto wheat seedlings using an automated booth sprayer to run-off. All sprayed plants were allowed to air dry prior to further handling. All fungicides were evaluated using the aforementioned method for their activity vs. all target diseases, unless stated otherwise. Wheat leaf blotch and brown rust activity were also evaluated using track spray applications, in which case the fungicides were formulated as EC formulations, containing 0.1% Trycol 5941 in the spray solutions. Wheat plants (variety Yuma) were grown from seed in a greenhouse in 50% mineral soil/50% soil-less Metro mix until the first leaf was fully emerged, with 7-10 seedlings per pot. These plants were inoculated with an aqueous spore suspension of Septoria tritici either prior to or after fungicide treatments. After inoculation the plants were kept in 100% relative humidity (one day in a dark dew chamber followed by two to three days in a lighted dew chamber at 20° C.) to permit spores to germinate and infect the leaf. The plants were then transferred to a greenhouse set at 20° C. for disease to develop. When disease symptoms were fully expressed on the 1st leaves of untreated plants, infection levels were assessed on a scale of 0 to 100 percent disease severity. Percent disease control was calculated using the ratio of disease severity on treated plants relative to untreated plants. Example E: Evaluation of Fungicidal Activity: Leaf Spot of Sugar Beets (Cercospora beticola; Bayer code CERCBE) Sugar beet plants (variety HH88) were grown in soil-less Metro mix and trimmed regularly to maintain a uniform plant size prior to test. Plants were inoculated with a spore suspension 24 h after fungicide treatments. Inoculated plants were kept in a dew chamber at 22° C. for 48 h then incubated in a greenhouse set at 24° C. under a clear plastic hood with bottom ventilation until disease symptoms were fully expressed. Fungicide formulation, application and disease assessment on the sprayed leaves followed the procedures as described in the Example A.

[2] = tested on: Mycosphaerella graminicola; Anamorph: Septoria tritici; assay: Leaf Blotch of Wheat (SEPTTR) fungicidal activity on wheat seedlings; details: Zymoseptoria tritici, Low Volume, 121.5 g/H
Method in brief: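 Compounds in acetone were diluted with nine volumes of water containing 110 ppm Triton X-100, or as EC formulations with 0.1% Trycol 5941 for track spray. They were sprayed on first-leaf Yuma wheat seedlings inoculated with S. tritici before or after treatment. Plants spent 1 day dark and 2–3 days lit at 100% RH, 20 °C. Severity (0–100%) was scored once untreated plants were fully diseased; control was computed relative to untreated plants.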

Venturia inaequalis = assay: Apple Scab (VENTIN) fungicidal activity on apple seedlings; details: 24 h, 1 Day Protectant, read-out: VENTIN 1 DP disease control
Procedure: Technical grades of materials were dissolved in acetone, which were then mixed with nine volumes of water (H2O) containing 110 ppm Triton X-100. The fungicide solutions were applied onto wheat seedlings using an automated booth sprayer to run-off. All sprayed plants were allowed to air dry prior to further handling. All fungicides were evaluated using the aforementioned method for their activity vs. all target diseases, unless stated otherwise. Wheat leaf blotch and brown rust activity were also evaluated using track spray applications, in which case the fungicides were formulated as EC formulations, containing 0.1% Trycol 5941 in the spray solutions. Wheat plants (variety Yuma) were grown from seed in a greenhouse in 50% mineral soil/50% soil-less Metro mix until the first leaf was fully emerged, with 7-10 seedlings per pot. These plants were inoculated with an aqueous spore suspension of Septoria tritici either prior to or after fungicide treatments. After inoculation the plants were kept in 100% relative humidity (one day in a dark dew chamber followed by two to three days in a lighted dew chamber at 20° C.) to permit spores to germinate and infect the leaf. The plants were then transferred to a greenhouse set at 20° C. for disease to develop. When disease symptoms were fully expressed on the 1st leaves of untreated plants, infection levels were assessed on a scale of 0 to 100 percent disease severity. Percent disease control was calculated using the ratio of disease severity on treated plants relative to untreated plants. Example D: Evaluation of Fungicidal Activity: Apple Scab (Venturia inaequalis; Bayer code […]) Apple seedlings (variety McIntosh) were grown in soil-less Metro mix, with one plant per pot. Seedlings with two expanding young leaves at the top (older leaves at bottom of the plants were trimmed) were used in the test. Plants were inoculated with a spore suspension of Venturia inaequalis 24 h after fungicide treatment and kept in a 22° C. dew chamber with 100% relative humidity for 48 h, and then moved to a greenhouse set at 20° C. for disease to develop. Fungicide formulation, application and disease assessment on the sprayed leaves followed the procedures as described in the Example A.

[3] = 24 h, 1 Day Protectant, read-out: SEPTTR 1DP disease control
[4] = 72 h, 3 Day Curative, read-out: SEPTTR 3DC disease control

Row | Compound | pest or weed control at 100 ppm [1] | pest or weed control at 100 ppm (Cercospora beticola) | pest or weed control at 121.5 g/ha [2, 3] | pest or weed control at 121.5 g/ha [2, 4] | pest or weed control at 100 ppm (Venturia inaequalis)
1 | COc1ccnc(C(=O)N[C@@H](C)C(=O)O[C@@H](C)C(c2ccccc2)c2ccccc2)c1OC(C)=O [Cmpd 139, (S)-(S)-1,1-diphenylpropan-2-yl 2-(3-acetoxy-4-methoxypicolinamido)propanoate] | > 80% | > 80% | > 80% | > 80% | > 80%
2 | COc1ccnc(C(=O)N[C@@H](C)C(=O)O[C@@H](C)C(c2ccccc2)c2ccccc2)c1OC(=O)C(C)C [Cmpd 140] | > 80% | > 80% | > 80% | > 80% | > 80%
3 | COc1ccnc(C(=O)N[C@@H](C)C(=O)O[C@@H](C)C(c2ccccc2)c2ccccc2)c1OCOC(C)=O [Cmpd 141, (S)-(S)-1,1-diphenylpropan-2-yl 2-(3-(acetoxymethoxy)-4-methoxypicolinamido)propanoate] | > 80% | > 80% | > 80% | > 80% | > 80%
4 | COc1ccnc(C(=O)N[C@@H](C)C(=O)O[C@@H](C)C(c2ccccc2)c2ccccc2)c1OCOC(=O)C(C)C [Cmpd 142, (S)-(S)-1,1-diphenylpropan-2-yl 2-(3-((isobutyryloxy)methoxy)-4-methoxypicolinamido)propanoate] | > 80% | > 80% | > 80% | > 80% | > 80%
5 | COc1ccnc(C(=O)N[C@@H](C)C(=O)O[C@@H](C)C(c2ccc(F)cc2)c2ccc(F)cc2)c1OC(C)=O [Cmpd 145] | > 80% | > 80% | > 80% | > 80% | > 80%
6 | COc1ccnc(C(=O)N[C@@H](C)C(=O)O[C@@H](C)C(c2ccc(F)cc2)c2ccc(F)cc2)c1OCOC(C)=O [Cmpd 146] | > 80% | > 80% | > 80% | > 80% | > 80%
7 | COc1ccnc(C(=O)N[C@@H](C)C(=O)O[C@@H](C)C(c2ccc(F)cc2F)c2ccc(F)cc2F)c1OCOC(C)=O [Cmpd 148] | > 80% | > 80% | > 80% | > 80% | > 80%
8 | COc1ccnc(C(=O)N[C@@H](C)C(=O)O[C@@H](C)C(c2ccc(F)cc2F)c2ccc(F)cc2F)c1OC(C)=O [Cmpd 150] | > 80% | > 80% | > 80% | > 80% | > 80%
9 | COc1ccnc(C(=O)N[C@@H](C)C(=O)O[C@@H](C)C(c2ccc(Cl)cc2)c2ccc(Cl)cc2)c1OC(C)=O [Cmpd 174] | > 80% | > 80% | > 80% | > 80% | < 80%
10 | COc1ccnc(C(=O)N[C@@H](C)C(=O)O[C@@H](C)C(c2ccc(Cl)cc2)c2ccc(Cl)cc2)c1OCOC(C)=O [Cmpd 176] | > 80% | > 80% | > 80% | > 80% | > 80%
